This note sets out measurements from patent US9035071B2, “Compounds acting at multiple prostaglandin receptors giving a general anti-inflammatory response” (Allergan, Inc., priority 2011, dated 2015).

Format in all cases: cell-based
Assay [1] addresses T1, human recombinant prostanoid EP3 receptor (Homo sapiens, UniProt P43115).
T1 construct: expressed in transfected cells; co-transfected with chimeric Gqi-HA
T1 sequence (P43115 1-390): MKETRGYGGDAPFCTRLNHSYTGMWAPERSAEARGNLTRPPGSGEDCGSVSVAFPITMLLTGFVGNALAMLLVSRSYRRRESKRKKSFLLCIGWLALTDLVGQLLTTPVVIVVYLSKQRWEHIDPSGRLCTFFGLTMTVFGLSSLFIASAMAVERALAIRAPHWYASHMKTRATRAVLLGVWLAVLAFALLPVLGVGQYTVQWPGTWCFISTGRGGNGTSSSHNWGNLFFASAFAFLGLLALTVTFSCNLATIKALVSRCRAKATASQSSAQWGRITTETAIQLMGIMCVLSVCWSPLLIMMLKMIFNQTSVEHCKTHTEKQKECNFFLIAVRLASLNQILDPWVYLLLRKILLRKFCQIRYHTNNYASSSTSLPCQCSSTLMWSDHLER
Nature of the assay: FLIPR Ca2+ signaling, PG antagonist activity, EP3. Particulars: antagonism of standard agonist PGE2, HEK-293 EBNA stable cells with chimeric Gqi. The method, then: (§1) The above compounds were tested for PG antagonist activity as follows using human recombinant prostanoid receptor (DP1, EP1-4, FP, IP and TP) stable cell lines:
(§2) In order to measure the response of Gs and Gi coupled prostanoid receptors as a Ca^2+ signal, chimeric G protein cDNAs were used. Stable cell lines over-expressing human prostanoid DP1, EP1-4, FP, IP, and TP receptors were established as follows:
(§3) Briefly, human prostanoid DP1, EP2, and EP4 receptor cDNAs were co-transfected with chimeric Gqs cDNA containing a haemagglutanin (HA) epitope; human prostanoid EP3 receptors were co-transfected with chimeric Gqi-HA; human EP1, FP, IP, and TP receptor cDNAs were expressed with no exogenous G-proteins. Gqs and Gqi chimeric cDNAs (Molecular Devices, Sunnyvale, Calif., U.S.A.), as well as cDNAs of prostanoid receptors, were cloned into a pCEP4 vector with a hygromycin B selection marker. Transfection into HEK-293 EBNA (Epstein-Barr virus nuclear antigen) cells was achieved by the FuGENE 6 transfection Reagent (Roche Applied Science, Indianapolis, Ind., USA). Stable transfectants were selected according to hygromycin resistance. Because Gqs and Gqi contained an HA epitope, G-protein expression was detected by Western blotting analysis using anti-mouse HA monoclonal antibody and horseradish peroxidase (HRP)-conjugated secondary antibody, while functional expression of prostanoid receptors was detected by FLIPR screening (Matias et al., 2004). These stable cell lines were validated using previously published antagonists at 10 μM against serial dilutions of standard agonists by FLIPR functional assays for Ca^2− Signaling (as described below).
(§4) Ca^2+ signaling studies were performed using a FLIPR TETRA system (Molecular Devices, Sunnyvale, Calif., USA) in the 384-format. This is a high-throughput instrument for cell-based assays to monitor Ca^2+ signaling associated with GPCRs and ion channels. Cells were seeded at a density of 5×10^4 cells/well in BioCoat poly-D-lysine coated, black wall, clear bottom 384-well plates (BD Biosciences, Franklin lakes, N.J., USA) and allowed to attach overnight in an incubator at 37° C. The cells were then washed twice with HBSS-HEPES buffer (Hanks' balanced salt solution without bicarbonate and phenol red, 20 mM HEPES, pH 7.4) using an ELx405 Select CW Microplate Washer (BioTek, Winooski, Vt., USA). After 60 min of dye-loading in the dark using the Ca^2+-sensitive dye Fluo-4AM (Invitrogen, Carlsbad, Calif., USA), at a final concentration of 2×10^−6M, the plates were washed 4 times with HBSS-HEPES buffer to remove excess dye and leaving 50 μl of buffer in each well. The plates were then placed in the FLIPR TETRA instrument and allowed to equilibrate at 37° C. AGN-211377 was added in a 25 μl volume to each well to give final concentrations of 0.1 μM, 0.3 μM, 1 μM, 3 μM, 10 μM, and 30 μM; or 0.067 μM, 0.1 μM, 0.2 μM, 0.3 μM, 0.67 μM, and 1 μM for cells over-expressing TP receptors. After 4.5 minutes, a 7-point serial dilution of the standard agonist for the corresponding receptor, in a 25 μl volume was injected at the final concentrations from 10^−11M to 10^−5M in 10-fold serial dilution increments for cells expressing human recombinant DP1, EP1, EP2, EP3, EP4, FP, and IP receptors. The dose range for the standard agonist for human recombinant TP receptors was from 10^−12M to 10^−6M. HBSS-HEPES buffer was used as the negative control for the standard agonists. Cells were excited with LED (light emitting diode) excitation at 470-495 nm and emission was measured through an emission filter at 515-575 nm. Assay plates were read for 3.5 minutes using the FLIPR^TETRA. The peak increase in fluorescence intensity was recorded for each well. On each plate, negative controls, dose response of positive controls, and co-treatments of antagonist-agonist for each dose were in triplicates. Standard agonists were as follows: DP=BW 245C, EP1-EP4=PGE2, FP=17-phenyl-PGF2α, IP=Cicaprost, and TP=U-46619. […]

Assay [2] addresses T2, human recombinant prostanoid FP receptor (Homo sapiens, UniProt P43088).
T2 construct: expressed in transfected cells
In words: FLIPR Ca2+ signaling, PG antagonist activity, FP. To be noted: antagonism of standard agonist 17-phenyl-PGF2α, HEK-293 EBNA stable cells. The method, then: as §1, §2, §3, §4

Assay [3] has as its target T3, human recombinant prostanoid TP receptor (Homo sapiens, UniProt P21731).
T3 construct: expressed in transfected cells
T3 sequence (P21731 1-343): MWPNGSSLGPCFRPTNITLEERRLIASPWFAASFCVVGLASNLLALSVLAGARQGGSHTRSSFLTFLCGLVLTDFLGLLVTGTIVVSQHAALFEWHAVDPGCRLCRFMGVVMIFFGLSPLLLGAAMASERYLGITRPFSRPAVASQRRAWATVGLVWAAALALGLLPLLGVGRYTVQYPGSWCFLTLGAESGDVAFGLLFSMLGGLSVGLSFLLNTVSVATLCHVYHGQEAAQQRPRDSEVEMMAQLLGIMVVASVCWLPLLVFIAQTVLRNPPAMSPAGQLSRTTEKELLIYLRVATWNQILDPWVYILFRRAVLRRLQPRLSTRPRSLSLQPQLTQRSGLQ
Nature of the assay: FLIPR Ca2+ signaling, PG antagonist activity, TP. To be noted: antagonism of standard agonist U-46619, HEK-293 EBNA stable cells. The method, then: as §1, §2, §3, §4

Assay [4] concerns the target T4, human recombinant prostanoid EP2 receptor (Homo sapiens, UniProt P43116).
T4 construct: expressed in transfected cells; co-transfected with chimeric Gqs-HA
Nature of the assay: FLIPR Ca2+ signaling, PG antagonist activity, EP2. Particulars: antagonism of standard agonist PGE2, HEK-293 EBNA stable cells with chimeric Gqs. The method, then:
as §1, §2, §3, §4

For assay [5], the target named is T5, human recombinant prostanoid IP receptor (Homo sapiens, UniProt P43119).
T5 construct: expressed in transfected cells
T5 sequence (P43119 whole entry): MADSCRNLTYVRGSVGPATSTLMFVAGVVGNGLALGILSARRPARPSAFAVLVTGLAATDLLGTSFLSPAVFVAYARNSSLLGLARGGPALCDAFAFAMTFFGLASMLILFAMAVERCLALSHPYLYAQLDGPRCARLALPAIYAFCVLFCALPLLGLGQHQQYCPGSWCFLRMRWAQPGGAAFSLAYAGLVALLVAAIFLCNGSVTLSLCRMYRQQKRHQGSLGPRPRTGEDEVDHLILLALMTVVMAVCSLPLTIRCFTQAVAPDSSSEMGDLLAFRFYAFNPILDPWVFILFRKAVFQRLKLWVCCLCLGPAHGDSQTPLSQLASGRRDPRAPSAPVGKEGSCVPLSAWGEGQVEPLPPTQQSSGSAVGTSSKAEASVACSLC
In words: FLIPR Ca2+ signaling, PG antagonist activity, IP. Particulars: antagonism of standard agonist Cicaprost, HEK-293 EBNA stable cells. The method, then:
as §1, §2, §3, §4

In general, Kb refers to the equilibrium dissociation constant of an antagonist, usually derived from a functional assay.

T2 sequence (P43088 whole entry): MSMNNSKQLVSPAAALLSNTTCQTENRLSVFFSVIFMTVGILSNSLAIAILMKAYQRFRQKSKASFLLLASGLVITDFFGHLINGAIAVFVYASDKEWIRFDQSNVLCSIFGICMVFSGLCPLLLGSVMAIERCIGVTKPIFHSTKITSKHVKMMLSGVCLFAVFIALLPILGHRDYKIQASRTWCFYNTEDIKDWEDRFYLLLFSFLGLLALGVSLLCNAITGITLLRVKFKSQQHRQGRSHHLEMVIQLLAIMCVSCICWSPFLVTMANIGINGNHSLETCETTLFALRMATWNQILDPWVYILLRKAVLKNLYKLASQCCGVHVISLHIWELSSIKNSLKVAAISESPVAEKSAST
T4 sequence (P43116 whole entry): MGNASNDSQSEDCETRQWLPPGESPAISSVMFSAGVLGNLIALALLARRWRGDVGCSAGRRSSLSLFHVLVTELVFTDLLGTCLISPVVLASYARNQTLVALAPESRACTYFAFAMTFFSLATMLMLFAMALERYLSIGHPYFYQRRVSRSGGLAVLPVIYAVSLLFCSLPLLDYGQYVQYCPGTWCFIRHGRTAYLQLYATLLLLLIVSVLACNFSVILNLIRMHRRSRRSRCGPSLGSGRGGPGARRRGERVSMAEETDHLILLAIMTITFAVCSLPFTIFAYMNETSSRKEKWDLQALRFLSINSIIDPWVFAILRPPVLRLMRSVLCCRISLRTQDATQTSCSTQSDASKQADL

With `CCCc1nn(Cc2cc(Cl)ccc2OCC(CC)CC)cc1C(=O)O` [Example 6, 1-[5-chloro-2-(2-ethyl-butoxy)-benzyl]-3-propyl-1H-pyrazole-4-carboxylic acid], the Kb in assay [1] was at least 10 µM; in assay [2] it was at least 10 µM; in assay [3], 0.5 µM; in assay [4], 8.6 µM; in assay [5], at least 10 µM.
